Laboratory results taken from patent publication US20230263817A1, “HIGH DOSE NICOTINAMIDE ADENINE DINUCLEOTIDE (NAD) PRECURSOR REGIMENS FOR REDUCTION OF INFLAMMATION IN HUMAN PATIENTS WITH PREEXISTING INFLAMMATION” (University of Washington, priority 2021, published 2023).

System: PBMCs of heart failure patients
Test: Seahorse OCR of HF PBMCs after 4-hour in vitro NR treatment
Assay type: cell-based, human
Details: HF PBMC, 4-hour 1 mM NR vs vehicle
Protocol: PBMC and Monocyte isolation. 30-60 ml of fasting blood was collected into EDTA-containing Vacutainers (BD Mfr #364606). Blood then was diluted (1:1) with RPMI medium (Corning; Cat #17-105-CV) and applied to Histopaque gradient medium (Sigma-Aldrich; Cat #10771) using SepMate-50 (STEMCELL Technologies), and centrifuged at 1200 g for 10 minutes. Top layer contained the enriched peripheral blood mononuclear cells (PBMCs) which were collected and followed by centrifugation at 300 g for 10 minutes. The pellet was resuspended with ACK lysis buffer (Gibco; Cat. A1049201) and incubated at room temperature for 5 minutes to remove residual red blood cells. Next, the enriched PBMCs were washed twice with RPMI medium. All PBMC samples were subjected to the baseline Seahorse Mito Stress Test. When available, the remaining cells were used for cytokine mRNA quantitative PCR and in vitro assays. For monocyte isolation, a magnetic bead-based negative-selection monocyte isolation kit (Miltenyi Biotec, 130-096-537) was used per the manufacturer's instructions. […]
Seahorse Mito Stress Test. Oxygen consumption rate (OCR) of freshly isolated PBMCs was assessed using a Seahorse XFe24 analyzer (Agilent Technologies). […]

NC(=O)c1ccc[n+]([C@@H]2O[C@H](CO)[C@@H](O)[C@H]2O)c1 [NR, nicotinamide riboside]
basal OCR: increased | maximal OCR: increased
